The subject of assay [1] is Rsk. Briefly: Inhibition of RSK by fmk-pa (click chemistry, PMA-stimulated HEK-293 cells). Format: cell-based. The conditions noted are these: FIG. 9. On the procedure:
Click reactions were performed as previously described by Speers et al., “Profiling enzyme activities in vivo using click chemistry methods”. Chem Biol 11, 535-46 (2004). Briefly, RSK2 CTD (30 nM) pretreated with the indicated concentrations of fmk-pa, or lysates from fmk-pa-pretreated cells were incubated with TAMRA-N3 or biotin-N3 ([…]), TCEP (1 mM), CuSO4 (1 mM), and TBAT ([…]) in PBS [pH 7.4] containing 1% SDS for 1 h at room temperature.
(§1) Confluent HEK-293 cells in 12-well plates were deprived of serum for 2 h and subsequently treated with the indicated concentrations of inhibitors for 1 h at 37° C. After stimulation with PMA ([…]) for 30 min, cells were washed with cold PBS and harvested in either PBS lysis buffer (FIG. 9c) or hypertonic lysis buffer (FIG. 10). Click chemistry was performed with TAMRA-N3 in lysates from cells treated with fmk-pa. Proteins were analyzed by in-gel fluorescence scanning or Western blotting.
RSK2 CTD was treated with the indicated concentrations of fmk-pa for 1 h followed by […] fmk-BODIPY for 1 h. After click conjugation with TAMRA-N3 (see Methods), proteins were resolved by 10% SDS-PAGE and detected by sequential in-gel fluorescence scanning using filters specific for TAMRA and BODIPY. […] Proteins were resolved by 10% SDS-PAGE and detected by in-gel fluorescence scanning (left) and Coomassie blue staining (right).

Assay [2] has as its system RSK. The assay can be described thus: RSK modification by fmk-pa in primary mouse macrophages (click chemistry). Format: cell-based. The conditions noted are these: pretreated for 1 h, LPS-stimulated. On the procedure:
Confluent macrophages in 12-well plates were incubated in DMEM supplemented with 20 mM Hepes [pH 7.4] and 0.5% FBS for […] prior to treatment with the indicated concentrations of fmk-pa for 1 h at 37° C. After stimulation with either PMA ([…]) or LPS ([…]) for 30 min, cells were washed with cold PBS and harvested in PBS lysis buffer. Click chemistry was performed with TAMRA-N3 and proteins were subsequently analyzed by in-gel fluorescence scanning or Western blotting.
FIG. 11. Fmk-pa and click chemistry reveal the existence of a CTD-independent pathway for RSK Ser386 phosphorylation. […] Macrophages were cultured in 0.5% serum for 20 h and subsequently treated with the indicated concentrations of fmk-pa for 1 h. Cells were stimulated with either PMA (100 ng/mL) or LPS (1 mg/mL) for 30 min and harvested in PBS. Proteins were resolved by 10% SDS-PAGE and detected by Western blotting with antibodies to phospho-Ser386 RSK and total RSK2. […] Data represent mean±s.e.m. from 3 independent experiments. […] Proteins were resolved by 10% SDS-PAGE and detected by in-gel fluorescence scanning. […] Eluted proteins were resolved by 10% SDS-PAGE and detected by Western blotting with streptavidin-HRP or antibodies to RSK1, RSK2, and phospho-Ser386 RSK.

Assay [3] has as its system rpS6 Ser235/236 phosphorylation. The assay can be described thus: PMA-stimulated rpS6 Ser235/236 phosphorylation in HEK-293 cells. Format: cell-based. The conditions noted are these: 300 nM fmk-pa together with rapamycin, HEK-293, PMA. On the procedure:
as §1
Serum-starved HEK-293 cells were treated with the indicated concentrations of rapamycin in the absence (left lanes) or presence (right lanes) of 300 nM fmk-pa for 1 h and stimulated with PMA (100 ng/mL) for 30 min. Proteins were resolved by 10% SDS-PAGE and detected by Western blotting with antibodies to phospho-Ser235/236 rpS6, phospho-Ser386 RSK, and total RSK2. […] Percent rpS6 Ser235/236 phosphorylation was determined by quantification of Western blots (e.g., FIG. 3a) relative to DMSO controls using ImageJ. Data represent mean±s.e.m. from 3 independent experiments.

In the next assay the target is T1, Rsk2 CTD (Homo sapiens, UniProt P51812).
T1 construct: We tested the halomethylketones against the Rsk2 CTD by adapting an in vitro kinase assay; made in house
The assay can be described thus: Rsk2 CTD in vitro kinase assay, wild type. Format: biochemical. The conditions noted are these: read-out: IC50 for RSK2. From the text:
We tested the halomethylketones against the Rsk2 CTD by adapting an in vitro kinase assay developed by Chrestensen and Sturgill, J, Biol. Chem. 277:27733 (2002).

The structures appear in SMILES notation. A value given as a limit tells only on which side of the number the result lay.

T1 sequence (P51812 422-679 limits assumed): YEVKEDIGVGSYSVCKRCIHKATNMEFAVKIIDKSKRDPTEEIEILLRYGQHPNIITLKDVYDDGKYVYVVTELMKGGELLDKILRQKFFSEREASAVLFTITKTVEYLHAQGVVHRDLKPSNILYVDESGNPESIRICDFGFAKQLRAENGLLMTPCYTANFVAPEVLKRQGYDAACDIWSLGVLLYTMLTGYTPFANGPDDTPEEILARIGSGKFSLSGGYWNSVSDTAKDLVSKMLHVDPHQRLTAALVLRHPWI

The term IC50 denotes the concentration that inhibits the measured activity by half. In the case of `C#CCNCCCn1c(C(=O)CF)c(-c2ccc(C)cc2)c2c(N)ncnc21` [propargylamine-fmk 18], in the assay on Rsk [1], the “Inhibition of RSK” value was “irreversible, selective, and potent inhibition”. In addition, the “RSK modification in intact macrophages” value with RSK [2] is on record as “saturable RSK modification”. Further, the “Inhibition of rpS6 phosphorylation” value in assay [3] was “additive inhibition”. The IC50 at Rsk2 CTD was less than 1000 nM.

For the origin of these results see US8748601B2, “Selective serine/threonine kinase inhibitors” (The Regents of the University of California, priority 2003, dated 2014).
